In ChEMBL document CHEMBL1150783, “In vitro activities of CG400549, a novel FabI inhibitor, against recently isolated clinical staphylococcal strains in Korea” (2007):
In brackets after ≈: the same amount, converted by molar mass. Activity calls are given as the source filed them. The calls are words filed in the database; no cut-off is given here.

Columns and labels:
[1] = test system: Staphylococcus haemolyticus; assay: Antibacterial activity against methicillin-susceptible coagulase-negative Staphylococcus haemolyticus by CLSI dilution method; format: functional
Aeromonas sp. = assay: Antibacterial activity against Aeromonas sp. by CLSI dilution method; format: functional, organism-based
Morganella morganii = assay: Antibacterial activity against Morganella morganii by CLSI dilution method; format: functional, organism-based
Staphylococcus sp. [2] = assay: Antibacterial activity against methicillin-resistant coagulase-negative Staphylococcus sp. by CLSI dilution method; format: functional
Enterobacter cloacae = assay: Antibacterial activity against sEnterobacter cloacae by CLSI dilution method; format: functional, organism-based
Staphylococcus aureus [3] = assay: Antibacterial activity against methicillin-susceptible Staphylococcus aureus isolate by CLSI dilution method; format: functional
Staphylococcus aureus [4] = assay: Antibacterial activity against methicillin-resistant Staphylococcus aureus by CLSI dilution method; format: functional
Campylobacter fetus = assay: Antibacterial activity against Campylobacter fetus by CLSI dilution method; format: functional, organism-based
Pseudomonas aeruginosa = assay: Antibacterial activity against sPseudomonas aeruginosa by CLSI dilution method; format: functional, organism-based
Staphylococcus sp. [5] = assay: Antibacterial activity against methicillin-susceptible coagulase-negative Staphylococcus sp. by CLSI dilution method; format: functional
[6] = test system: Staphylococcus epidermidis; assay: Antibacterial activity against methicillin-resistant coagulase-negative Staphylococcus epidermidis by CLSI dilution method; format: functional
Helicobacter pylori = assay: Antibacterial activity against Helicobacter pylori by CLSI dilution method; format: functional, organism-based
Nocardia sp. = assay: Antibacterial activity against Nocardia sp. by CLSI dilution method; format: functional, organism-based
Escherichia coli = assay: Antibacterial activity against sEscherichia coli by CLSI dilution method; format: functional, organism-based
Mammaliicoccus sciuri = assay: Antibacterial activity against methicillin-resistant coagulase-negative Staphylococcus sciuri by CLSI dilution method; format: functional
[7] = test system: Staphylococcus saprophyticus; assay: Antibacterial activity against methicillin-resistant coagulase-negative Staphylococcus saprophyticus by CLSI dilution method; format: functional
Neisseria gonorrhoeae = assay: Antibacterial activity against Neisseria gonorrhoeae by CLSI dilution method; format: functional, organism-based
[8] = test system: Staphylococcus epidermidis; assay: Antibacterial activity against methicillin-susceptible coagulase-negative Staphylococcus epidermidis by CLSI dilution method; format: functional
Moraxella catarrhalis = assay: Antibacterial activity against Moraxella catarrhalis by CLSI dilution method; format: functional, organism-based
Haemophilus influenzae = assay: Antibacterial activity against sHaemophilus influenzae by CLSI dilution method; format: functional, organism-based
Staphylococcus hominis [9] = assay: Antibacterial activity against methicillin-susceptible coagulase-negative Staphylococcus hominis by CLSI dilution method; format: functional
Staphylococcus simulans = assay: Antibacterial activity against methicillin-susceptible coagulase-negative Staphylococcus simulans by CLSI dilution method; format: functional
Acinetobacter baumannii = assay: Antibacterial activity against sAcinetobacter baumannii by CLSI dilution method; format: functional, organism-based
Listeria monocytogenes = assay: Antibacterial activity against Listeria monocytogenes by CLSI dilution method; format: functional, organism-based
Streptococcus = assay: Antibacterial activity against Streptococcus by CLSI dilution method; format: functional, organism-based
Staphylococcus hominis [10] = assay: Antibacterial activity against methicillin-resistant coagulase-negative Staphylococcus hominis by CLSI dilution method; format: functional
Vibrio sp. = assay: Antibacterial activity against Vibrio sp. by CLSI dilution method; format: functional, organism-based
Klebsiella pneumoniae = assay: Antibacterial activity against Klebsiella pneumoniae by CLSI dilution method; format: functional, organism-based
Citrobacter freundii = assay: Antibacterial activity against Citrobacter freundii by CLSI dilution method; format: functional, organism-based
Corynebacterium = assay: Antibacterial activity against […] by CLSI dilution method; format: functional, organism-based
[11] = test system: Staphylococcus haemolyticus; assay: Antibacterial activity against methicillin-resistant coagulase-negative Staphylococcus haemolyticus by CLSI dilution method; format: functional
Enterococcus = assay: Antibacterial activity against Enterococcus by CLSI dilution method; format: functional, organism-based
Serratia marcescens = assay: Antibacterial activity against Serratia marcescens by CLSI dilution method; format: functional, organism-based
Staphylococcus sp. [12] = assay: (§1) Antibacterial activity against methicillin-susceptible coagulase-negative Staphylococcus sp. assessed as percent susceptible isolates by CLSI dilution method; format: functional
Staphylococcus aureus [13] = assay: Antibacterial activity against methicillin-resistant Staphylococcus aureus isolate assessed as percent susceptible isolates by CLSI dilution method; format: functional
Staphylococcus sp. [14] = assay: Antibacterial activity against methicillin-susceptible coagulase-negative Staphylococcus sp. assessed as percent resistant isolates by CLSI dilution method; format: functional
Staphylococcus aureus [15] = assay: (§2) Antibacterial activity against methicillin-resistant Staphylococcus aureus isolate assessed as percent resistant isolates by CLSI dilution method; format: functional
Staphylococcus aureus [16] = assay: Antibacterial activity against methicillin-susceptible Staphylococcus aureus isolate assessed as […] isolates by CLSI dilution method; format: functional
Staphylococcus sp. [17] = assay: as §1; format: functional; remark: listed apart in the source
Staphylococcus sp. [18] = assay: Antibacterial activity against methicillin-resistant coagulase-negative Staphylococcus sp. assessed as percent resistant isolates by CLSI dilution method; format: functional
Staphylococcus aureus [19] = assay: as §2; format: functional; remark: listed apart in the source

Cc1c(N)cccc1Cn1ccc(OCCc2cccs2)cc1=O [CG-400549]
MIC [1]: 2 µg/mL (≈ 5.87 µM) | Activity (Aeromonas sp.): Active | Activity (Morganella morganii): Active | MIC50 (Staphylococcus sp. [2]): 0.5 µg/mL (≈ 1.47 µM) | MIC90 (Staphylococcus sp. [2]): 4 µg/mL (≈ 11.7 µM) | Activity (Enterobacter cloacae): Active | MIC50 (Staphylococcus aureus [3]): 0.5 µg/mL (≈ 1.47 µM) | MIC90 (Staphylococcus aureus [3]): 0.5 µg/mL (≈ 1.47 µM) | MIC50 (Staphylococcus aureus [4]): 0.5 µg/mL (≈ 1.47 µM) | MIC90 (Staphylococcus aureus [4]): 0.5 µg/mL (≈ 1.47 µM) | Activity (Campylobacter fetus): Active | Activity (Pseudomonas aeruginosa): Active | MIC50 (Staphylococcus sp. [5]): 0.5 µg/mL (≈ 1.47 µM) | MIC90 (Staphylococcus sp. [5]): 8 µg/mL (≈ 23.5 µM) | MIC [6]: 4 µg/mL (≈ 11.7 µM) | Activity (Helicobacter pylori): Active | Activity (Nocardia sp.): Active | Activity (Escherichia coli): Active | MIC (Mammaliicoccus sciuri): 4 µg/mL (≈ 11.7 µM) | MIC [7]: 8 µg/mL (≈ 23.5 µM) | Activity (Neisseria gonorrhoeae): Active | MIC [8]: 8 µg/mL (≈ 23.5 µM) | Activity (Moraxella catarrhalis): Active | Activity (Haemophilus influenzae): Active | MIC (Staphylococcus hominis [9]): 4 µg/mL (≈ 11.7 µM) | MIC (Staphylococcus simulans): 4 µg/mL (≈ 11.7 µM) | Activity (Acinetobacter baumannii): Active | Activity (Listeria monocytogenes): Active | Activity (Streptococcus): Active | MIC (Staphylococcus hominis [10]): 4 µg/mL (≈ 11.7 µM) | Activity (Vibrio sp.): Active | Activity (Klebsiella pneumoniae): Active | Activity (Citrobacter freundii): Active | Activity (Corynebacterium): Active | MIC [11]: 2 µg/mL (≈ 5.87 µM) | Activity (Enterococcus): Active | Activity (Serratia marcescens): Active

CCC[C@@H]1C[C@@H](C(=O)N[C@@H]([C@H]2O[C@H](SC)[C@H](O)[C@@H](O)[C@H]2O)[C@H](C)Cl)N(C)C1 [CLINDAMYCIN]
Activity (Staphylococcus sp. [12]): 97% | MIC50 (Staphylococcus sp. [2]): > 128 µg/mL | MIC90 (Staphylococcus sp. [2]): > 128 µg/mL | Activity (Staphylococcus aureus [13]): 12% | MIC50 (Staphylococcus aureus [3]): 0.12 µg/mL (≈ 0.282 µM) | MIC90 (Staphylococcus aureus [3]): 0.12 µg/mL (≈ 0.282 µM) | MIC50 (Staphylococcus aureus [4]): > 128 µg/mL | MIC90 (Staphylococcus aureus [4]): > 128 µg/mL | Activity (Staphylococcus sp. [14]): 3% | MIC50 (Staphylococcus sp. [5]): 0.12 µg/mL (≈ 0.282 µM) | MIC90 (Staphylococcus sp. [5]): 0.25 µg/mL (≈ 0.588 µM) | Activity (Staphylococcus aureus [15]): 88% | Activity (Staphylococcus aureus [16]): 100% | Activity (Staphylococcus sp. [17]): 44% | Activity (Staphylococcus sp. [18]): 54% | Activity (Staphylococcus aureus [19]): 0%

CC[C@H]1OC(=O)[C@H](C)[C@@H](O[C@H]2C[C@@](C)(OC)[C@@H](O)[C@H](C)O2)[C@H](C)[C@@H](O[C@@H]2O[C@H](C)C[C@H](N(C)C)[C@H]2O)[C@](C)(O)C[C@@H](C)C(=O)[C@H](C)[C@@H](O)[C@]1(C)O [ERYTHROMYCIN]
Activity (Staphylococcus sp. [12]): 78% | MIC50 (Staphylococcus sp. [2]): 128 µg/mL (≈ 174 µM) | MIC90 (Staphylococcus sp. [2]): > 128 µg/mL | Activity (Staphylococcus aureus [13]): 5% | MIC50 (Staphylococcus aureus [3]): 0.5 µg/mL (≈ 0.681 µM) | MIC90 (Staphylococcus aureus [3]): > 128 µg/mL | MIC50 (Staphylococcus aureus [4]): > 128 µg/mL | Activity (Staphylococcus sp. [14]): 17% | MIC50 (Staphylococcus sp. [5]): 0.25 µg/mL (≈ 0.341 µM) | MIC90 (Staphylococcus sp. [5]): 128 µg/mL (≈ 174 µM) | Activity (Staphylococcus aureus [15]): 95% | Activity (Staphylococcus aureus [16]): 88% | Activity (Staphylococcus sp. [17]): 20% | Activity (Staphylococcus sp. [18]): 80% | Activity (Staphylococcus aureus [19]): 12%

C[C@H]1COc2c(N3CCN(C)CC3)c(F)cc3c(=O)c(C(=O)O)cn1c23.C[C@H]1COc2c(N3CCN(C)CC3)c(F)cc3c(=O)c(C(=O)O)cn1c23.O [LEVOFLOXACIN]
Activity (Staphylococcus sp. [12]): 100% | MIC50 (Staphylococcus sp. [2]): 4 µg/mL | MIC90 (Staphylococcus sp. [2]): 32 µg/mL | Activity (Staphylococcus aureus [13]): 7% | MIC50 (Staphylococcus aureus [3]): 0.25 µg/mL | MIC90 (Staphylococcus aureus [3]): 0.5 µg/mL | MIC50 (Staphylococcus aureus [4]): 16 µg/mL | MIC90 (Staphylococcus aureus [4]): > 128 µg/mL | Activity (Staphylococcus sp. [14]): 0% | MIC50 (Staphylococcus sp. [5]): 0.25 µg/mL | MIC90 (Staphylococcus sp. [5]): 0.25 µg/mL | Activity (Staphylococcus aureus [15]): 93% | Activity (Staphylococcus aureus [16]): 100% | Activity (Staphylococcus sp. [17]): 35% | Activity (Staphylococcus sp. [18]): 60% | Activity (Staphylococcus aureus [19]): 0%
